The target of data set [1] is T1, hP2Y14R (Homo sapiens, UniProt Q15391).
T1 construct: expressed in transfected cells; host or cells: CHO cells
T1 sequence (Q15391 1-338): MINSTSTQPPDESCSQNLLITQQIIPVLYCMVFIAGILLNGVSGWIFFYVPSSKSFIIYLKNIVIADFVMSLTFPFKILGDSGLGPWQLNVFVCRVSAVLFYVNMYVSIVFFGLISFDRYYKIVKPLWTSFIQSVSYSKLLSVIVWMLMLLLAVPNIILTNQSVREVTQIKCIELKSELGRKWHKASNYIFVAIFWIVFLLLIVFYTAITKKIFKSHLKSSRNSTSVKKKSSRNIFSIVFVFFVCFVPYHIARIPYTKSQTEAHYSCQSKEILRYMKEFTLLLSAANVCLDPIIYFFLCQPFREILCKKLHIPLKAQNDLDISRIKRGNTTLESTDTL
The experiment in a line: Inhibition of fluorescent antagonist binding in whole hP2Y14R-expressing CHO cells (flow cytometry). (In general: A flow cytometer gives signals particle by particle.)

In data set [2] the target is T2, mP2Y14R (Mus musculus, UniProt Q9ESG6).
T2 sequence (Q9ESG6 1-338): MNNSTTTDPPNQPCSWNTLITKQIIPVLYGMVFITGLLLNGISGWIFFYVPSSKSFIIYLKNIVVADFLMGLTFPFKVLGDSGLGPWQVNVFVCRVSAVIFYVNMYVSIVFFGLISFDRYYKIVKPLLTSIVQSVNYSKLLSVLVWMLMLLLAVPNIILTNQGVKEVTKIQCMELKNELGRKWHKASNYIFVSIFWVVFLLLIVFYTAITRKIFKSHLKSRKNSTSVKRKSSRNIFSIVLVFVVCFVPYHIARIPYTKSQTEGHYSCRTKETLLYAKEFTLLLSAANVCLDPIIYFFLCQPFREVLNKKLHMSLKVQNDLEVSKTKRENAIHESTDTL
The data set is described as follows: cell-based. As to conditions: for affinity at the mP2Y14R vs the human homologue: comparison of species, in words. The source says:
Desirably, receptor affinity is maintained across species, facilitating performance in in vivo preclinical testing in small animals, with the mouse being the most commonly used species in initial evaluation.

Data set [3] has as its system allergen-induced airway inflammation. The experiment in a line: Ovalbumin/Aspergillus mouse asthma model (BALF leukocytes). As to conditions: 20 μmol/kg; for eosinophil counts in the BALF: i.p. prior to allergen challenge, two days post-challenge.
In data set [4] the test system is PLE. The experiment in a line: Esterase cleavage of prodrugs in the presence of PLE. Type of data set: in vitro ADME. As to conditions: 37° C.; for Percent cleavage at 72 h: pH 7.3, PLE.
The target in data set [5] is hERG ion channel (Homo sapiens, UniProt Q12809). The experiment in a line: hERG ion channel block, patch clamp assay. A general note: The hERG channel carries a current that helps repolarise heart muscle cells.
Sequence of hERG ion channel (Q12809 whole entry): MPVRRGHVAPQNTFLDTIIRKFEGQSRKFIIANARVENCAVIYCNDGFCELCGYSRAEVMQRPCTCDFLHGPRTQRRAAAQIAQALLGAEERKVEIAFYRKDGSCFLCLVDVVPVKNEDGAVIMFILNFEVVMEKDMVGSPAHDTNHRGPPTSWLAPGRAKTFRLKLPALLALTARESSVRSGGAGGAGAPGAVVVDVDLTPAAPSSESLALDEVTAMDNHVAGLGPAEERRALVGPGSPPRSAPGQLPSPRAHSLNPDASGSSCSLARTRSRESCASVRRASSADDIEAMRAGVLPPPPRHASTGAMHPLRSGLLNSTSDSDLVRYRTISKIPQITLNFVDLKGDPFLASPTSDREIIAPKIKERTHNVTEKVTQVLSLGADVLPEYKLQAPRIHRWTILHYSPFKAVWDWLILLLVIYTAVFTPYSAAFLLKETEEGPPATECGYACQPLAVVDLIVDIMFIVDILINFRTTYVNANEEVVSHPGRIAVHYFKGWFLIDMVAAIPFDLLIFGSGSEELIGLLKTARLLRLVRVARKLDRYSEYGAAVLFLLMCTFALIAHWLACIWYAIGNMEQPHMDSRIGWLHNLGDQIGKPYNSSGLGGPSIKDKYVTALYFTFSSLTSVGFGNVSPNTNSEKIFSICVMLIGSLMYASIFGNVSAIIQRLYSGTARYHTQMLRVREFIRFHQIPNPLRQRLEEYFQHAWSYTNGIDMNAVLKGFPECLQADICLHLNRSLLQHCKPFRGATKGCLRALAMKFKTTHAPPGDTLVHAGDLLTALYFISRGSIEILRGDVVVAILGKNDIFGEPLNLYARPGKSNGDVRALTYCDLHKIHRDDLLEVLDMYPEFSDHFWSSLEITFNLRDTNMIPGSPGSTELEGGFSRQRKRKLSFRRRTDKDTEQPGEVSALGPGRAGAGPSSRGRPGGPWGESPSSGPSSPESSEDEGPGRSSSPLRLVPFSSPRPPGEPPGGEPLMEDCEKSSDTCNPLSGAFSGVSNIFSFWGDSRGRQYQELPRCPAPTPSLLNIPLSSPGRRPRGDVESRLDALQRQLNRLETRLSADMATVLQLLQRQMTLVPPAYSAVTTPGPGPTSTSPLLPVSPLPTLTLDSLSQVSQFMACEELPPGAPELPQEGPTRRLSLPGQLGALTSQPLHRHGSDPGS
The nature of data set [6]: HPLC-based lipophilicity (Log D7.4). As to conditions: pH 7.4.
Data set [7] can be described thus: Aqueous solubility, pION method.
Data set [8] has as its system CCI-induced mechano-allodynia. The data set is described as follows: Chronic constriction injury (CCI) mouse model of neuropathic pain. The following applies: 10 μmol/kg, i.p., day 7 post-injury.
Setting [9] is: Table 1, fluorescent antagonist 2, hP2Y14R-CHO cells, 3-4 determinations, read-out: IC50, hP2Y14R (μM, mean ± SEM).
Where [10] appears, read: read-out: mP2Y14R, IC50, Table 2, tracer 2 (20 nM, 45 min), HEK293 cells.
The mark [11] stands for this setting: Table 6, fluorescent hP2Y14R antagonist (3), read-out: hP2Y14R, IC50.
Where [12] appears, read: read-out: mP2Y14R, IC50, Table 6, whole mP2Y14R-HEK cells, 200 nM of 3, mean ± SEM, n = 3-6.
[13] abbreviates: Table 2, whole hP2Y14R-CHO cells, 20 nM fluorescent antagonist 3, mean+SEM, n = 3-6, read-out: IC50.

Each structure is given as a SMILES string. ≈ marks a conversion by molar mass, not a printed value. Where two headings read alike, the source gives them in different places.

As usually defined, the IC50 is the concentration needed to halve the response being measured. As to `NCC#Cc1ccc(-c2cc(C(=O)O)cc(-n3cc(-c4ccc(C(F)(F)F)cc4)nn3)c2)cc1` [Compound 19, 4′-(3-Aminoprop-1-yn-1-yl)-5-(4-(4-(trifluoromethyl)phenyl)-1H-1,2,3-triazol-1-yl)-[1,1′-biphenyl]-3-carboxylic acid], the IC50 in data set [1] (setting [9]) came out at 0.308 ± 0.063 µM; in data set [2] (setting [10]), 375 ± 175 nM. The “affinity at the mP2Y14R vs the human homologue” value in data set [2] is on record as “nearly the same affinity in the two species”.

As to `CN(C)C(=O)COC(=O)c1cc(-c2ccc(C3CCNCC3)cc2)cc(-n2cc(-c3ccc(C(F)(F)F)cc3)nn2)c1` [Compound 37a, 2-(Dimethylamino)-2-oxoethyl 4′-(piperidin-4-yl)-5-(4-(4-(trifluoromethyl)phenyl)-1H-1,2,3-triazol-1-yl)-[1,1′-biphenyl]-3-carboxylate], the “lymphocyte count in the BALF” value in data set [3] (i.p.) was “trended higher than in vehicle control”. Besides, the “t1/2 (min, mean ± SEM) for esterase cleavage” value in data set [4] (pH 7.3, aqueous medium, PLE) was “most rapidly cleaved”.

In the case of `N[C@@H]1C[C@H](CO)[C@@H](c2ccc(-c3cc(C(=O)O)cc4cc(-c5ccc(C(F)(F)F)cc5)ccc34)cc2)C1` [Compound 134, 4-(4-((1S,2S,4S)-4-Amino-2-(hydroxymethyl)cyclopentyl)phenyl)-7-(4-(trifluoromethyl)phenyl)-2-naphthoic acid], the half-maximal inhibitory concentration (IC50) is over 30000 nM in data set [5], 0.0108 ± 0.0021 µM in data set [1] (setting [11]) and 17.9 ± 2.6 nM in data set [2] (setting [12]).

Usually chromatographic logD stands for a lipophilicity value derived from retention on a column. Take `CC(=O)N1C[C@H]2C[C@@H]1C[C@@H]2c1ccc(-c2cc(C(=O)O)cc3cc(-c4ccc(C(F)(F)F)cc4)ccc23)cc1` [Compound 118, 4-(4-((1S,4S,5S)-2-Acetyl-2-azabicyclo[2.2.1]heptan-5-yl)phenyl)-7-(4-(trifluoromethyl)phenyl)-2-naphthoic acid]: the IC50 was 0.107 ± 0.013 µM in data set [1] (setting [11]) and 102 ± 39 nM in data set [2] (setting [12]). In data set [6], this molecule displayed a chromatographic logD of 0.921 ± 0.034. For the same molecule, the “Solubility (ug/mL) pH 7.4” value in data set [7] is on record as 1.86 ± 0.05 ug/mL.

On to `N[C@@H]1C[C@H](C(=O)O)[C@@H](c2ccc(-c3cc(C(=O)O)cc4cc(-c5ccc(C(F)(F)F)cc5)ccc34)cc2)C1` [Compound 138, 4-(4-((1S,2S,4S)-4-Amino-2-carboxycyclopentyl)phenyl)-7-(4-(trifluoromethyl)phenyl)-2-naphthoic acid], for which the IC50 in data set [1] (setting [11]) came out at 0.0496 ± 0.0135 µM; in data set [2] (setting [12]), 40.9 ± 6.3 nM.

In the case of `CN(C)C(=O)COC(=O)c1cc(-c2ccc(-c3cc(CO)on3)cc2)c2ccc(-c3ccc(C(F)(F)F)cc3)cc2c1` [Compound 37b, 2-(Dimethylamino)-2-oxoethyl 4-(4-(5-(hydroxymethyl)isoxazol-3-yl)phenyl)-7-(4-(trifluoromethyl)phenyl)-2-naphthoate], the “eosinophil counts in the BALF” value in data set [3] is listed as “significantly reduced eosinophils to a greater extent than the parent antagonists”. For the same molecule, in data set [4], the “Percent cleavage at 72 h” value came out at 32.6 ± 0.9%.

Turning to `NCCCNC(=O)c1ccc(-c2cc(C(=O)O)cc(-n3cc(-c4ccc(C(F)(F)F)cc4)nn3)c2)cc1` [Compound 14, 4′-((3-Aminopropyl)carbamoyl)-5-(4-(4-(trifluoromethyl)phenyl)-1H-1,2,3-triazol-1-yl)-[1,1′-biphenyl]-3-carboxylic acid], in data set [8], the “reversal of mechano-allodynia (figure legend)” value is “reversal of established mechano-allodynia”. The IC50 in data set [1] (setting [9]) was found to be 0.588 ± 0.043 µM.

One may read the EC50 as the concentration giving half of the maximal effect. Take `O=C(O)c1cc(-c2ccc([C@@H]3C[C@@H]4C[C@H]3C(=O)N4)cc2)c2ccc(-c3ccc(C(F)(F)F)cc3)cc2c1` [Compound 120, 4-(4-((1R,4R,5R)-3-Oxo-2-azabicyclo[2.2.1]heptan-5-yl)phenyl)-7-(4-(trifluoromethyl)phenyl)-2-naphthoic acid]: the EC50 in data set [5] (read-out: (EC50), μM for stimulation of hERG channel activity, patch clamp, Table 8) amounted to 18.1 µM. Further, the IC50 in data set [1] (setting [11]) worked out at 0.0395 ± 0.0098 µM. In data set [2] (setting [12]), the half-inhibitory concentration (IC50) was 26.2 ± 10.7 nM. Besides, in data set [7], the “Solubility (ug/mL) pH 4” value is on record as 0.31 ± 0.14 ug/mL and the “Solubility (ug/mL) pH 7.4” value is recorded as 3.42 ± 0.46 ug/mL.

As for `O=C(O)c1cc(-c2ccc([C@@H]3C[C@H]4CN[C@@H]3C4)cc2)c2ccc(-c3ccc(C(F)(F)F)cc3)cc2c1` [Compound 116, 4-(4-((1R,4R,6S)-2-Azabicyclo[2.2.1]heptan-6-yl)phenyl)-7-(4-(trifluoromethyl)phenyl)-2-naphthoic acid], the results for the IC50 in data set [5] and in data set [1] (setting [13]) were over 30000 nM and 0.0098 ± 0.0003 µM, respectively. Also, the chromatographic logD in data set [6] was 2.11 ± 0.06. The “Solubility (ug/mL) pH 4” value in data set [7] was 1.45 ± 0.05 ug/mL. The “Solubility (ug/mL) pH 7.4” value in data set [7] is recorded as 0.40 ± 0.13 ug/mL.

As for `CC(=O)N1CCC(c2ccc(-c3cc(C(=O)OCC(=O)N(C)C)cc4cc(-c5ccc(C(F)(F)F)cc5)ccc34)cc2)CC1` [Compound 37c, 2-(Dimethylamino)-2-oxoethyl 4-(4-(1-acetylpiperidin-4-yl)phenyl)-7-(4-(trifluoromethyl)phenyl)-2-naphthoate], the “eosinophil counts in the BALF” value in data set [3] was “significantly reduced eosinophils to a greater extent than the parent antagonists”. Also, the “Percent cleavage at 72 h” value in data set [4] amounted to 27.2 ± 0.3%.

Consider `CC(C)(C)OC(=O)NCCCc1ccc(-c2cc(C(=O)O)cc(-n3cc(-c4ccc(C(F)(F)F)cc4)nn3)c2)cc1` [Compound 20, 4′-(3-((tert-Butoxycarbonyl)amino)propyl)-5-(4-(4-(trifluoromethyl)phenyl)-1H-1,2,3-triazol-1-yl)-[1,1′-biphenyl]-3-carboxylic acid], for which the 50% effective concentration (EC50) in data set [5] was found to be 18 µM.

One may read the solubility as how much of the substance goes into solution per volume. Consider `O=C(O)c1cc(-c2ccc([C@]3(O)[C@@H]4CC[C@H]3CNC4)cc2)c2ccc(-c3ccc(C(F)(F)F)cc3)cc2c1` [Compound 131, 4-(4-((1R,5S,8r)-8-Hydroxy-3-azabicyclo[3.2.1]octan-8-yl)phenyl)-7-(4-(trifluoromethyl)phenyl)-2-naphthoic acid], for which the half-inhibitory concentration (IC50) in data set [5] was over 30000 nM; in data set [1], 0.0213 ± 0.0011 µM; in data set [2], 15.5 ± 3.3 nM. This molecule registered a chromatographic logD in data set [6] of 1.2 ± 0.01. Besides, the solubility in data set [7] (pH 4, aqueous buffer) worked out at 2.32 ± 0.25 µg/mL (≈ 4.48 µM); in data set [7] (pH 7.4, aqueous buffer), 0.54 ± 0.09 µg/mL (≈ 1.04 µM).

For the molecule `N[C@H]1C[C@@H](CO)[C@H](c2ccc(-c3cc(C(=O)O)cc4cc(-c5ccc(C(F)(F)F)cc5)ccc34)cc2)C1` [Compound 135, 4-(4-((1R,2R,4R)-4-Amino-2-(hydroxymethyl)cyclopentyl)phenyl)-7-(4-(trifluoromethyl)phenyl)-2-naphthoic acid], the concentration for half-maximal inhibition (IC50) in data set [5] was over 30000 nM. The IC50 in data set [1] (setting [13]) came to 0.0126 ± 0.0019 µM. For the same molecule, the chromatographic logD in data set [6] was found to be 0.957 ± 0.046. In data set [7], the “Solubility (ug/mL) pH 4” value was found to be 4.97 ± 0.11 ug/mL and the “Solubility (ug/mL) pH 7.4” value was 0.66 ± 0.02 ug/mL.

Take `O=C(O)c1cc(-c2ccc(-c3cc(CO)on3)cc2)cc(-n2cc(-c3ccc(C(F)(F)F)cc3)nn2)c1` [Compound 29, 4′-(5-(Hydroxymethyl)isoxazol-3-yl)-5-(4-(4-(trifluoromethyl)phenyl)-1H-1,2,3-triazol-1-yl)-[1,1′-biphenyl]-3-carboxylic acid]: the IC50 in data set [1] (Table 2, tracer 2 (20 nM, 45 min), CHO cells, read-out: hP2Y14R, IC50) is 0.296 ± 0.013 µM; in data set [2] (setting [10]), 184 ± 24 nM. Besides, the “affinity at the mP2Y14R vs the human homologue” value in data set [2] is reported as “slightly enhanced affinity”.

On to `O=C(O)c1cc(-c2ccc([C@@H]3C[C@@H]4C[C@H]3CN4)cc2)c2ccc(-c3ccc(C(F)(F)F)cc3)cc2c1` [Compound 115, 4-(4-((1R,4R,5R)-2-Azabicyclo[2.2.1]heptan-5-yl)phenyl)-7-(4-(trifluoromethyl)phenyl)-2-naphthoic acid], for which the results for the IC50 in data set [5] and in data set [1] (setting [13]) were over 30000 nM and 0.00862 ± 0.00211 µM, respectively.

Values taken from patent US20240150290A1, “HETEROCYCLIC P2Y14 RECEPTOR ANTAGONISTS” (priority 2021, published 2024).
